Assay results from US20100093748A1, “SUBSTITUTED PIPERIDINES HAVING PROTEIN KINASE INHIBITING ACTIVITY” (ASTEX THERAPEUTICS LIMITED, priority 2006, published 2010).

Experiments:
PKA catalytic domain = target: T1, PKA catalytic domain (Homo sapiens, UniProt P17612); assay: Measurement of PKA kinase inhibitory activity (IC50), radiometric filter plate assay; type: biochemical; conditions: 1 nM enzyme, 40 μM ATP, 20 minutes
T1 construct: using the PKA catalytic domain from Upstate Biotechnology (#14-440); purchased Upstate Biotechnology 14-440
Protocol: Compounds of the invention can be tested for PK inhibitory activity using the PKA catalytic domain from Upstate Biotechnology (#14-440) and the 9 residue PKA specific peptide (GRTGRRNSI), also from Upstate Biotechnology (#12-257), as the substrate. A final concentration of 1 nM enzyme is used in a buffer that includes 20 mM MOPS pH 7.2, 40 μM ATP/γ^33P-ATP and […] substrate. Compounds are added in dimethylsulphoxide (DMSO) solution to a final DMSO concentration of 2.5%. The reaction is allowed to proceed for 20 minutes before addition of excess orthophosphoric acid to quench activity. Unincorporated γ^33P-ATP is then separated from phosphorylated proteins on a Millipore MAPH filter plate. The plates are washed, scintillant is added and the plates are then subjected to counting on a Packard Topcount.
The % inhibition of the PKA activity is calculated and plotted in order to determine the concentration of test compound required to inhibit 50% of the PKA activity (IC50).

PKB-PIF fusion protein = target: T2, PKB-PIF fusion protein (Homo sapiens, UniProt P31751); assay: Measurement of PKB kinase inhibitory activity (IC50), radiometric filter plate assay; type: biochemical; conditions: 0.6 nM enzyme, 30 μM ATP, AKTide-2T substrate, 20 minutes
T2 construct: PIF (fusion partner); made in house
Source text: The inhibition of protein kinase B (PKB) activity by compounds can be determined essentially as described by Andjelkovic et al. (Mol. Cell. Biol. 19, 5061-5072 (1999)) but using a fusion protein described as PKB-PIF and described in full by Yang et al (Nature Structural Biology 9, 940-944 (2002)). The protein is purified and activated with PDK1 as described by Yang et al. The peptide AKTide-2T (H-A-R-K-R-E-R-T-Y-S-F-G-H-H-A-OH) obtained from Calbiochem (#123900) is used as a substrate. A final concentration of 0.6 nM enzyme is used in a buffer that includes 20 mM MOPS pH 7.2, 30 μM ATP/γ^33P-ATP and 25 µM substrate. Compounds are added in DMSO solution to a final DMSO concentration of 2.5%. The reaction is allowed to proceed for 20 minutes before addition of excess orthophosphoric acid to quench activity. The reaction mixture is transferred to a phosphocellulose filter plate where the peptide binds and the unused ATP is washed away. After washing, scintillant is added and the incorporated activity measured by scintillation counting.
The % inhibition of the PKB activity is calculated and plotted in order to determine the concentration of test compound required to inhibit 50% of the PKB activity (IC50).

[1] = tested on: phosphorylation of Serine-9 residue in Glycogen Synthase Kinase-3beta as surrogate marker of cellular PKB (Akt) activity; assay: In vitro MDA-MB-468 human breast adenocarcinoma GSK-3 phosphorylation assay; type: cell-based; conditions: MDA-MB-468 cells, 2 hours compound incubation, mean IC50, read-out: Cell pGSK3b IC50
Summary of the method: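 MDA-MB-468 cells (5000/well) were treated with compound for 2 h at 37° C, then fixed and immunostained for phospho-Ser9 GSK-3β with an Alexa Fluor 488 secondary antibody. Fluorescence was quantified on an Acumen Explorer. IC50 came from a background-corrected 4-parameter logistic fit with minimum set to zero; obvious outliers were excluded from means.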

T2 sequence (P31751 with tags, fused parts or gaps limits assumed): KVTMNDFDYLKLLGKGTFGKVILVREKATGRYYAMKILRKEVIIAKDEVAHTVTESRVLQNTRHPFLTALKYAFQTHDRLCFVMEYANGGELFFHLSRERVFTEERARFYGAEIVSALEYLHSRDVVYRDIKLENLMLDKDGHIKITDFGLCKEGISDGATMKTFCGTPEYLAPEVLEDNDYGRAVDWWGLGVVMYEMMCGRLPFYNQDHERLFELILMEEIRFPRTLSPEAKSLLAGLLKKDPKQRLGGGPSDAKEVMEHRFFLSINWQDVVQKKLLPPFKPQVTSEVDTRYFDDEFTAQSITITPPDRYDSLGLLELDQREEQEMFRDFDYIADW

IC50 (PKA catalytic domain) [nM]	IC50 (PKB-PIF fusion protein) [nM]	IC50 [1] [nM]	SMILES
< 1000	< 100		NC1(c2nc3ccccc3[nH]2)CCN(c2ncnc3[nH]ccc23)CC1 [Example 12, 4-(1H-benzoimidazol-2-yl)-1-(7H-pyrrolo[2,3-d]pyrimidin-4-yl)-piperidin-4-ylamine]
< 1000	< 100	320	Cc1ccc2nc(C3(N)CCN(c4ncnc5[nH]cnc45)CC3)[nH]c2c1 [Example 17, 4-(6-Methyl-1H-benzoimidazol-2-yl)-1-(9H-purin-6-yl)-piperidin-4-ylamine]
< 1000	< 100		NC1(c2nc3ccccc3[nH]2)CCN(c2ncnc3[nH]c(=O)[nH]c23)CC1 [Example 18, 6-[4-amino-4-(1H-benzoimidazol-2-yl)-piperidin-1-yl]-7,9-dihydro-purin-8-one]
	< 100		NCC1(c2nc3ccccc3[nH]2)CCN(c2ncnc3[nH]ccc23)CC1 [Example 34, C-[4-(1H-Benzoimidazol-2-yl)-1-(7H-pyrrolo[2,3-d]pyrimidin-4-yl)-piperidin-4-yl]-methylamine]
< 1000	< 1000		OCC1(c2nc3ccccc3[nH]2)CCN(c2ncnc3[nH]ccc23)CC1 [Example 35, [4-(1H-Benzoimidazol-2-yl)-1-(7H-pyrrolo[2,3-d]pyrimidin-4-yl)-piperidin-4-yl]-methanol]
	< 100		NCC1(c2nc3ccccc3o2)CCN(c2ncnc3[nH]ccc23)CC1 [Example 36, C-[4-Benzooxazol-2-yl-1-(7H-pyrrolo[2,3-d]pyrimidin-4-yl)-piperidin-4-yl]-methylamine]
< 1000	< 100		NC1(c2nc3ccccc3o2)CCN(c2ncnc3[nH]ccc23)CC1 [Example 37, 4-Benzooxazol-2-yl-1-(7H-pyrrolo[2,3-d]pyrimidin-4-yl)-piperidin-4-ylamine]
	< 1000		NC1(c2nc3ccccc3o2)CCN(c2ncnc3[nH]c(=O)[nH]c23)CC1 [Example 38, 6-(4-amino-4-benzooxazol-2-yl-piperidin-1-yl)-7,9-dihydro-purin-8-one]
	< 100		NC1(c2ncc(-c3ccccc3)[nH]2)CCN(c2ncnc3[nH]ccc23)CC1 [Example 39, 4-(5-Phenyl-1H-imidazol-2-yl)-1-(7H-pyrrolo[2,3-d]pyrimidin-4-yl)-piperidin-4-ylamine]
	< 1000		NC1(c2ncc(-c3ccccc3)o2)CCN(c2ncnc3[nH]ccc23)CC1 [Example 40, 4-(5-Phenyl-oxazol-2-yl)-1-(7H-pyrrolo[2,3-d]pyrimidin-4-yl)-piperidin-4-ylamine]
	< 100		NC1(c2ncc(-c3ccccc3)[nH]2)CCN(c2ccnc3[nH]ccc23)CC1 [Example 41, 4-(5-phenyl-1H-imidazol-2-yl)-1-(1H-pyrrolo[2,3-b]pyridin-4-yl)-piperidin-4-ylamine]

Continued, compound first:

SMILES	IC50 (PKA catalytic domain) [nM]	IC50 (PKB-PIF fusion protein) [nM]	IC50 [1] [nM]
NC1(c2nc3cccc(F)c3[nH]2)CCN(c2ncnc3[nH]ccc23)CC1 [Example 1, 4-(7-Fluoro-1H-benzoimidazol-2-yl)-1-(7H-pyrrolo[2,3-d]pyrimidin-4-yl)-piperidin-4-ylamine]	< 1000	< 100	
NC1(c2nc3cc(F)c(F)cc3[nH]2)CCN(c2ncnc3[nH]ccc23)CC1 [Example 2, 4-(5,6-Difluoro-1H-benzoimidazol-2-yl)-1-(7H-pyrrolo[2,3-d]pyrimidin-4-yl)-piperidin-4-ylamine]	< 1000	< 100	
NC1(c2nc3ccc(F)c(F)c3[nH]2)CCN(c2ncnc3[nH]ccc23)CC1 [Example 3, 4-(6,7-Difluoro-1H-benzoimidazol-2-yl)-1-(7H-pyrrolo[2,3-d]pyrimidin-4-yl)-piperidin-4-ylamine]	< 1000	< 100	
Cc1cccc2nc(C3(N)CCN(c4ncnc5[nH]ccc45)CC3)[nH]c12 [Example 4, 4-(7-Methyl-1H-benzoimidazol-2-yl)-1-(7H-pyrrolo[2,3-d]pyrimidine-4-yl)-piperidin-4-ylamine]	< 1000	< 100	
NC1(c2nc3ccc(F)cc3[nH]2)CCN(c2ncnc3[nH]ccc23)CC1 [Example 6, 4-(6-Fluoro-1H-benzoimidazol-2-yl)-1-(7H-pyrrolo[2,3-d]pyrimidin-4-yl)-piperidin-4-ylamine]	< 1000	< 100	560
NC1(c2nc3cc(F)cc(F)c3[nH]2)CCN(c2ncnc3[nH]ccc23)CC1 [Example 7, 4-(5,7-Difluoro-1H-benzoimidazol-2-yl)-1-(7H-pyrrolo[2,3-d]pyrimidin-4-yl)-piperidin-4-ylamine]		< 100	940
COc1ccc2[nH]c(C3(N)CCN(c4ncnc5[nH]ccc45)CC3)nc2c1 [Example 8, 4-(5-Methoxy-1H-benzoimidazol-2-yl)-1-(7H-pyrrolo[2,3-d]pyrimidin-4-yl)-piperidin-4-ylamine]	< 1000	< 100	
